# Experiments:
# in vivo = conditions: C57BL/6, mouse, iv
# Procedure: Pharmacokinetics of compounds were tested in C57BI/6 mice or Wistar rats at 1-30 mg/kg. Compound concentrations in the blood stream were monitored at appropriate intervals using LC-MS.
# Pharmacokinetic studies were performed to monitor compound concentrations in plasma following i.v., i.p. or s.c. administration. Studies were conducted in C57BI/6 mice weighing approximately 20 g.
# Peptide concentrations in the plasma were analysed by HPLC-MS on a Surveyor HPLC combined with mass spectrometer LCQ classic or Advantage (all Thermo Electron, US) equipped with an ESI-source. All HPLC experiments were carried out on a Phenomenex C-18 Luna column (50 mm×2.0 mm, 5 μl injection volume) using a linear gradient: eluent A 0.05% trifluoracetic acid (TFA) in water; eluent B 0.05% TFA in acetonitrile; flow rate 0.3 mL/min in 10 min. […] The internal standard is prepared as a 0.1 μg/ml solution in 100% methanol. 50 μl plasma and 50 μl internal standard are mixed. 100 μl methanol is added and mixed thoroughly. After 30 min incubation on ice the vial is centrifuged for 15 min at 4° C. […] 150 μl of the supernatant are transferred into the HPLC vial
# [1] = tested on: FVIII-inhibited human normal plasma; assay: Defined Fibrin Deposition Assay (clotting time); format: biochemical
# in vitro [2] = conditions: mouse, pH 7.4
# mouse serum albumin = mouse serum albumin (Mus musculus, UniProt P07724); assay: in vitro; conditions: pH 7.4
# FIX−/− mice = assay: Tail clip assay in FIX−/− mice (blood loss, survival); format: in vivo, mouse
# FVIII−/− (E17) mice = assay: Tail clip assay in FVIII−/− mice (blood loss, survival)
# Procedure: Groups of mice, typically 8-16 male and female exon 17 FVIII knockout mice with severe hemorrhagic diathesis, receive a single i.v. (tail vein), i.p. or s.c. bolus injection (10 ml/kg body weight). Two minutes before tail clip, animals are anesthetized by an i.p. application of 100 mg/kg ketamine and 5 mg/kg xylazine. Five minutes after i.v. and 60 minutes after i.p. or s.c. peptide or peptide derivative administration 0.5 cm of the tail tip is ablated. Blood dropping from the wound is collected in tubes containing 5.0 ml 0.04% NH3 for defined time periods, such as 0-2 minutes, 2-4 minutes, 4-6 minutes, 6-8, 8-10, 10-12, 12-14, 14-16, 16-20, 20-24, 24-28, 28-32, 32-42, 42-52 and 52-62 minutes. Blood cells in each tube are disrupted and hemoglobin is extracted by a three hour incubation period at room temperature followed by ultrasound treatment. The absorbance at 414 nm and 620 nm of the extracts is determined in micro titre plates. 620 nm is a reference wavelength and the A620 reading is subtracted from the A414 reading. The amount of blood in the extract corresponding to the subtracted reading is calculated from a standard curve created by known amounts of blood from wild type control mice, such as C57/BI6 mice. Parameters of the bleeding characteristics of the mice to be recorded are total blood loss, bleeding rate, bleeding time, 1 h, 2 h, 3 h, 4 h, 24 h and 48 h survival. Cumulative blood loss is calculated by summing up the amounts of blood for each time period. Data for the animals of a group are averaged and plotted against bleeding time. At each time point data sets for treatment and vehicle control groups are analysed by Student's t-test for statistical significance.
# Parameters quantified were total blood loss, bleeding time, bleeding rate and survival.
# Blood loss was monitored in the tail clip assay as described in the specific description for 62 minutes after tail clip. FVIII−/− mice were administered with rFVIII (Advate®) at 25, 50 or 100 U/kg i.v. or with vehicle alone. […] As a control, C57BI/6 mice were administered vehicle alone.
# Vehicle was 5% DMSO, 5% Cremophor EL, 0.05% Tween 80 in water for injection.
# in vitro [3] = format: in vitro ADME; conditions: mouse, microsomes, pH 7.4
# Procedure: Tests were used to determine the stability of compounds in microsomal preparations of human or animal origin. The microsomal stability is measured either in assays provided by Cerep (France, Catalog ref. 900-8h) or by the protocol described below. […] All wells must be carefully mixed to ensure a homogenous suspension before the next steps. 75 μl samples (duplicates) at t=0 minutes are taken for each compound. The plate is sealed and returned to the water bath/thermomixer for 30 minutes. The test compounds/standards are extracted by addition of 200 μl methanol, also including an internal standard. […] The samples are centrifuged at 1300 g for 10 min at 4° C. 200 μl of the supernatant is transferred into a 96-well plate with 10 μl DMSO per well. Compound stability is measured by HPLC-MS analysis (triplicates). The same procedure is repeated after 30 min. […] The signal to noise ratio for all peaks must be 5:1 or better. The ratio AUCanalyte: AUCstandard at the different timepoints must be used. The calculated stability for the control compound must fall in a certain range to validate the assay.
# in vitro [4] = conditions: human, plasma
# HERG channel = HERG channel (Homo sapiens, UniProt Q12809); assay: HERG inhibition, patch clamp assay; conditions: patch clamp assay
# HERG channel, sequence (Q12809 whole entry): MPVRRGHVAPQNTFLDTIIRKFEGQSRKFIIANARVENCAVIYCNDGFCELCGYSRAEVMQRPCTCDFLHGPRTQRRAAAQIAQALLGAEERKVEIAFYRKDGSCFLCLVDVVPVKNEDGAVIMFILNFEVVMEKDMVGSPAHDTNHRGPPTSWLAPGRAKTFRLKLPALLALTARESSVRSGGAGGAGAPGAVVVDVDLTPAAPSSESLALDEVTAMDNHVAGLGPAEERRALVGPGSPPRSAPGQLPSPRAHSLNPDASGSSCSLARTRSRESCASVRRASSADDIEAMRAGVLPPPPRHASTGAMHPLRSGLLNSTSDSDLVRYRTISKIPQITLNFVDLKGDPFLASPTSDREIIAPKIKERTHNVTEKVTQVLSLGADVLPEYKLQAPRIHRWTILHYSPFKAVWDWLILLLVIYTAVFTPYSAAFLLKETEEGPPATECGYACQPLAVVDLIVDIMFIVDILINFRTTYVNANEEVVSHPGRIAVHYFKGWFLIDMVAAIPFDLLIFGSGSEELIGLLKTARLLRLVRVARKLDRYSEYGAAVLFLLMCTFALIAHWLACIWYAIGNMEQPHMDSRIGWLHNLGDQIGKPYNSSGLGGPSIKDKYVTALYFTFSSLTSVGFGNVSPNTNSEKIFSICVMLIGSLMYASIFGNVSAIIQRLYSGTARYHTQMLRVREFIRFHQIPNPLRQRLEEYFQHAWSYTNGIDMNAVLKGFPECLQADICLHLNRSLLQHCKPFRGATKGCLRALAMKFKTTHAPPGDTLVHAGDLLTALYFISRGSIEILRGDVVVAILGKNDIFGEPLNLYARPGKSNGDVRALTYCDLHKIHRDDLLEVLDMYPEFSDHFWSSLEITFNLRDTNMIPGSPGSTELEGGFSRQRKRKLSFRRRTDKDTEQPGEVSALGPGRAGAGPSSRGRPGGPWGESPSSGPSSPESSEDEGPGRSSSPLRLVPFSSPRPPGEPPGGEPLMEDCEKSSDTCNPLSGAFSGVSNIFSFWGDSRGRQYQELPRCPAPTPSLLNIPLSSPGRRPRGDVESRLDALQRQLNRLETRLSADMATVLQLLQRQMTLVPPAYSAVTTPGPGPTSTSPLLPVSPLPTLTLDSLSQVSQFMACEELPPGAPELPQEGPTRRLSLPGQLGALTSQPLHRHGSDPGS
# Procedure: QT prolongation is assessed by HERG inhibition measured by patch-clamp techniques or Rb^+ efflux.
# For rigorous characterization of HERG inhibition the patch clamp assay is applied (Cerep, France, Catalog ref. 900-36). […] The test compounds (10 mM stock solutions) were dissolved in dimethylsulfoxide (DMSO). The solutions at 1 μM contained 0.01% DMSO.
# mouse serum albumin, sequence (P07724 25-608): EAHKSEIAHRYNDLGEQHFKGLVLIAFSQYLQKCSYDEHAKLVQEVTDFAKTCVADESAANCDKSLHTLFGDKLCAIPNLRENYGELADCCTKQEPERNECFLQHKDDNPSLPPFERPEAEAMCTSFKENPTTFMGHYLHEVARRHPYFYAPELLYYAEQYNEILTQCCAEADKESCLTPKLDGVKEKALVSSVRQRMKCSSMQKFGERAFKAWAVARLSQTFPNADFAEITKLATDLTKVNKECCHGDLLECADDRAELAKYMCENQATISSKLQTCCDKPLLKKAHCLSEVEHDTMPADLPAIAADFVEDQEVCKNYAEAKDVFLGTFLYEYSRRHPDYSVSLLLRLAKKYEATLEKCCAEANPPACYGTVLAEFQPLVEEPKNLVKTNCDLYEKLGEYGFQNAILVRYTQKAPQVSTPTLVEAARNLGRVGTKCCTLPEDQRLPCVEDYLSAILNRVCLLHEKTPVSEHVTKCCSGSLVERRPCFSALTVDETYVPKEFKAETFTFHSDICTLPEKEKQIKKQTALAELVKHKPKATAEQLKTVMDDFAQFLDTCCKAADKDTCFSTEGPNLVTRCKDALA
substance,measurement,setting,value
Ac-RMKFDVWDLYFEIVW-NH2 [Peptide A01],level at 5 min,in vivo,673 ng/mL
same,level at 10 min,in vivo,352 ng/mL
same,level at 0.25 h,in vivo,454 ng/mL
same,level at 20 min,in vivo,145 ng/mL
same,level at 25 min,in vivo,282 ng/mL
same,level at 0.5 h,in vivo,115 ng/mL
same,FEIBA EU (from clotting time),[1]; compound 25 μM,80 mU/ml
same,FEIBA EU (from clotting time),[1]; compound 50 μM,127 mU/ml
same,FEIBA EU (from clotting time),[1]; compound 100 μM,145 mU/ml
same,Activity in the Defined Fibrin Deposition Assay,[1]; summary,possess activity
same,"recovery at 6 h, 5 μM",in vitro [2],> 73.3%
same,"fraction unbound at 6 h, 5 μM",in vitro [2]; plasma,< 0.008
same,"fraction unbound at 6 h, 5 μM",mouse serum albumin,< 0.003
same,"recovery at 6 h, 5 μM",mouse serum albumin,> 103%
same,Survival vs vehicle alone,FIX−/− mice; 20 mg/kg i.v.,no significant difference
same,Mean volume of blood loss following tail clip compared to vehicle control,"FIX−/− mice; 20 mg/kg i.v. five minutes before tail clip, any time points",not significantly different
same,Effect in FIX−/− mice,FIX−/− mice; conclusion,no effect
same,Survival vs vehicle control,FVIII−/− (E17) mice; 20 mg/kg i.v.,statistically significant longer survival
same,Mean volume of blood loss following tail clip compared to vehicle control,"FVIII−/− (E17) mice; 20 mg/kg i.v. five minutes before tail clip, p<0.05 at most time points",significantly different
same,p of difference in mean blood loss vs vehicle,"FVIII−/− (E17) mice; 20 mg/kg i.v., at 52 and 62 minutes after tail clip",< 0.01
same,Survival (%) 2 hours,"FVIII−/− (E17) mice; FVIII−/− mice, 20 mg/kg i.v. five minutes before tail clip, 2 hours (Table 26)",56%
same,Survival (%) 4 hours,"FVIII−/− (E17) mice; FVIII−/− mice, 20 mg/kg i.v. five minutes before tail clip, 4 hours (Table 26)",25%
same,Survival (%) 24 hours,"FVIII−/− (E17) mice; FVIII−/− mice, 20 mg/kg i.v. five minutes before tail clip, 24 hours (Table 26)",6%
same,Survival (%) 48 hours,"FVIII−/− (E17) mice; FVIII−/− mice, 20 mg/kg i.v. five minutes before tail clip, 48 hours (Table 26)",0%
same,Survival (%) 2 hours,"FVIII−/− (E17) mice; FVIII−/− mice, Exp 1, 20 mg/kg i.v., tail clip, 2 hours",56%
same,Survival (%) 3 hours,"FVIII−/− (E17) mice; FVIII−/− mice, Exp 1, 20 mg/kg i.v., tail clip",44%
same,Survival (%) 4 hours,"FVIII−/− (E17) mice; FVIII−/− mice, Exp 1, 20 mg/kg i.v., tail clip, 4 hours",25%
same,Survival (%) 24 hours,"FVIII−/− (E17) mice; FVIII−/− mice, Exp 1, 20 mg/kg i.v., tail clip, 24 hours",6%
same,Survival (%) 2 hours,"FVIII−/− (E17) mice; FVIII−/− mice, Exp 2 (repeat), 20 mg/kg i.v., tail clip, 2 hours",63%
same,Survival (%) 3 hours,"FVIII−/− (E17) mice; FVIII−/− mice, Exp 2 (repeat), 20 mg/kg i.v., tail clip",38%
same,Survival (%) 4 hours,"FVIII−/− (E17) mice; FVIII−/− mice, Exp 2 (repeat), 20 mg/kg i.v., tail clip, 4 hours",31%
same,Survival (%) 24 hours,"FVIII−/− (E17) mice; FVIII−/− mice, Exp 2 (repeat), 20 mg/kg i.v., tail clip, 24 hours",13%
same,Total blood loss (% of Vehicle),"FVIII−/− (E17) mice; FVIII−/− mice, female, 20 mg/kg i.p., 0.5 cm tail clip",72 % of Vehicle
same,Survival 2 hours (%),"FVIII−/− (E17) mice; FVIII−/− mice, female, 20 mg/kg i.p., 0.5 cm tail clip, 2 hours",75%
same,Survival 4 hours (%),"FVIII−/− (E17) mice; FVIII−/− mice, female, 20 mg/kg i.p., 0.5 cm tail clip, 4 hours",25%
same,Survival 24 hours (%),"FVIII−/− (E17) mice; FVIII−/− mice, female, 20 mg/kg i.p., 0.5 cm tail clip, 24 hours",25%
same,Survival 2 hours (%),"FVIII−/− (E17) mice; FVIII−/− mice, female, 20 mg/kg i.v., 1 cm tail clip, 2 hours",80%
same,Survival 24 hours (%),"FVIII−/− (E17) mice; FVIII−/− mice, female, 20 mg/kg i.v., 1 cm tail clip, 24 hours",10%
same,Total blood loss (% of Vehicle),"FVIII−/− (E17) mice; FVIII−/− mice, male, 20 mg/kg i.p., 0.5 cm tail clip",83 % of Vehicle
same,Survival 2 hours (%),"FVIII−/− (E17) mice; FVIII−/− mice, male, 20 mg/kg i.p., 0.5 cm tail clip, 2 hours",38%
same,Survival 4 hours (%),"FVIII−/− (E17) mice; FVIII−/− mice, male, 20 mg/kg i.p., 0.5 cm tail clip, 4 hours",25%
same,Survival 24 hours (%),"FVIII−/− (E17) mice; FVIII−/− mice, male, 20 mg/kg i.p., 0.5 cm tail clip, 24 hours",25%
same,Survival 2 hours (%),"FVIII−/− (E17) mice; FVIII−/− mice, male, 20 mg/kg i.v., 1 cm tail clip, 2 hours",20%
same,Survival 24 hours (%),"FVIII−/− (E17) mice; FVIII−/− mice, male, 20 mg/kg i.v., 1 cm tail clip, 24 hours",0%
same,"Compensation for lack of FVIII (reducing blood loss, increasing survival following tail clip)",FVIII−/− (E17) mice; conclusion,at least partially compensate for the lack of FVIII
same,Gender effect on efficacy,"FVIII−/− (E17) mice; i.v., tail clip 1 cm",more effective in female than male mice
same,Difference in survival curves vs vehicle,"FVIII−/− (E17) mice; male mice, 20 mg/kg i.p., 0.5 cm tail clip",no statistically significant difference
same,Bleeding and survival in two independently performed experiments,FVIII−/− (E17) mice; repeat experiment,bleed less and survive longer
same,Activity in the tail clip assay,FVIII−/− (E17) mice; summary,possessing activity
same,"remaining at 0.5 h, 1 μM",in vitro [3],30%
same,"remaining at 0.5 h, 5 μM",in vitro [4],58%
same,Classification as HERG-channel blocker (potency ranking of Roche et al.),HERG channel,low-potency

# — patent US10822376B2, “Biologically active peptides” (Baxalta Incorporated, priority 2008, dated 2020)
